This note sets out measurements from patent publication US20230242526A1 (Zentaur Therapeutics International Limited, priority 2020, published 2023).

The subject of data set [1] is HCC1806 s.c. xenografts. Kind of data set: HCC1806 s.c. breast cancer xenograft efficacy (tumor volume, relative tumor volume, tumor weight, TGI). To be noted: 30 mg/kg P.O. BID; for Tumor Growth Inhibition D3 / Tumor Growth Inhibition D7 / Tumor Growth Inhibition D10 / Tumor Growth Inhibition D14 / Tumor Growth Inhibition D17 / Tumor Growth Inhibition D21: vs control vehicle; for Tumor Growth Inhibition D3 / Tumor volume D3: day 3; for Tumor Growth Inhibition D7 / Tumor volume D7: day 7; for Tumor Growth Inhibition D10 / Tumor volume D10: day 10; for Tumor Growth Inhibition D14 / Tumor volume D14: day 14; for Tumor Growth Inhibition D17 / Tumor volume D17: day 17; for Tumor Growth Inhibition D21 / Tumor volume D21: day 21; for Tumor volume D0 / Tumor volume D3 / Tumor volume D7 / Tumor volume D10 / Tumor volume D14 / Tumor volume D17 / Tumor volume D21 / Tumor weight: group mean; for Tumor volume D0: day 0; for Tumor weight: end of the study (Day 21). Type of data set: in vivo, BALB/c nude mice. How it is done:
The in vivo potency of anti-tumor activities of Comp. 4, Comp. 37, Comp. 5, Comp. 28, Comp. 163, and Comp. 164 have been evaluated on the growth of HCC1806 s.c. xenografts in BALB/c nude mice.
The testing compounds Comp. 4, Comp. 37, Comp. 5, Comp. 28, Comp. 163, and Comp. 164 were prepared according the synthetic routes set forth in the above Examples. The testing formulations for compounds Comp. 4, Comp. 37, Comp. 5, Comp. 28, Comp. 163, and Comp. 164 were prepared as liquid formulation in a liquid vehicle containing 0.1% Tween-80 (purchased form Sinopharm Chemical Reagent Co., Ltd, Lot No. 20190322), 0.5% methyl cellulose (purchased from SIGMA, Lot No. SLBR8963V) in water.
A total of 42+8 female BALB/c nude mice were ordered from Shanghai LC Laboratory Animal Co. Ltd. The animals were specific pathogen free and approximately 4-5 weeks old upon arrival at PharmaLegacy Laboratories.
HCC1806 cell cultures were maintained at 37° C. under 5% CO2 in RPMI-1640 medium supplemented with 10% FBS and were subsequently cultured within 10 passages before inoculated into the mice.
(§1) When the average tumor volume reached 80-120 mm^3, 42 tumor-bearing mice were randomized into 7 groups (6 mice per group) according to tumor volume. The grouping day was defined as Day 0. Treatment was applied immediately after grouping animals on the same day.
(§2) The body weight of the testing animals were measured twice a week after grouping. Tumor volumes by the length and width of the tumor were measured by electric calipers and the tumor volume (V) was calculated as follows: V=(length×width^2)/2. The individual relative tumor volume (RTV) was calculated as follows: RTV=Vt/V0, where Vt was the volume on each day, and V0 was the volume at the beginning of the treatment.
Tumors were collected at the end of the study (Day 21), the mice were sacrificed. Tumor was collected, weighed, photographed.
(§3) Results were expressed as mean±S.E.M. Comparisons between two groups were made by corresponding test, p<0.05 were considered to be significant.

Data set [2] is described as follows: Body weight in the HCC1806 xenograft study. It is filed as in vivo, BALB/c nude mice. To be noted: group mean, 30 mg/kg P.O. BID; for Body weight D0: day 0; for Body weight D3: day 3; for Body weight D7: day 7; for Body weight D10: day 10; for Body weight D14: day 14; for Body weight D17: day 17; for Body weight D21: day 21. How it is done: as §1, §2, §3

For `[2H]C([2H])([2H])c1cc2cnc(NC3([2H])C([2H])([2H])CN(S(C)(=O)=O)CC3([2H])[2H])nc2n([C@@H]2CCC[C@@]2(C)O)c1=O` [Comp. 164, (−)-8-((1R,2R)-2-hydroxy-2-methylcyclopentyl)-6-(methyl-d3)-2-((1-(methylsulfonyl)piperidin-4-yl-3,3,4,5,5-d5)amino)pyrido[2,3-d]pyrimidin-7(8H)-one], in data set [1], the “tumor weight at the end of the study, in words” value is reported as “lighter tumor but no statistic significance”; the “Tumor Growth Inhibition D3” value is 29.37%; the “Tumor Growth Inhibition D7” value is 15.49%; the “Tumor Growth Inhibition D10” value worked out at 21.94%. For the same compound, in data set [1], the “Tumor Growth Inhibition D14” value turned out to be 18.56%, the “Tumor Growth Inhibition D17” value is 29.97%, the “Tumor Growth Inhibition D21” value is 31.27% and the “Tumor volume D0” value turned out to be 112.74 mm^3. Further, in data set [1], the “Tumor volume D3” value worked out at 243.14 mm^3, the “Tumor volume D7” value was 545.66 mm^3, the “Tumor volume D10” value is 817.53 mm^3 and the “Tumor volume D14” value is 1209.55 mm^3. Also, in data set [1], the “Tumor volume D17” value was 1380.25 mm^3, the “Tumor volume D21” value is on record as 1610.30 mm^3 and the Tumor weight is listed as 2.51 g. For the same compound, in data set [2], the “Body weight D0” value is on record as 18.47 g, the “Body weight D3” value came out at 18.47 g, the “Body weight D7” value was 18.70 g and the “Body weight D10” value was 18.37 g. Further, in data set [2], the “Body weight D14” value is 17.86 g, the “Body weight D17” value was 18.20 g and the “Body weight D21” value is listed as 17.29 g.

Regarding `[2H]C([2H])([2H])c1cc2cnc(NC3([2H])C([2H])([2H])CN(S(=O)(=O)C([2H])([2H])[2H])CC3([2H])[2H])nc2n([C@@H]2CCC[C@@]2(C)O)c1=O` [Comp. 163, (−)-8-((1R,2R)-2-hydroxy-2-methylcyclopentyl)-6-(methyl-d3)-2-((1-((methyl-d3)sulfonyl)piperidin-4-yl-3,3,4,5,5-d5)amino)pyrido[2,3-d]pyrimidin-7(8H)-one], in data set [1], the “tumor volume compared with G1 vehicle on each day” value is “significant smaller tumor volume on day 7, 17 and 21”; the “tumor weight at the end of the study, in words” value is “lighter tumor but no statistic significance”; the “Tumor Growth Inhibition D3” value is recorded as 38.81%; the “Tumor Growth Inhibition D7” value is 34.97%. Also, in data set [1], the “Tumor Growth Inhibition D10” value turned out to be 34.46%, the “Tumor Growth Inhibition D14” value turned out to be 30.36%, the “Tumor Growth Inhibition D17” value turned out to be 36.67% and the “Tumor Growth Inhibition D21” value is on record as 40.94%. In data set [1], the “Tumor volume D0” value came to 110.66 mm^3, the “Tumor volume D3” value is 223.62 mm^3, the “Tumor volume D7” value was 443.83 mm^3 and the “Tumor volume D10” value is on record as 702.37 mm^3. Besides, in data set [1], the “Tumor volume D14” value stood at 1048.55 mm^3, the “Tumor volume D17” value was determined as 1257.00 mm^3, the “Tumor volume D21” value is 1397.61 mm^3 and the Tumor weight was determined as 2.20 g. In addition, in data set [2], the “Body weight D0” value is 17.54 g, the “Body weight D3” value is reported as 17.61 g, the “Body weight D7” value amounted to 17.72 g and the “Body weight D10” value was found to be 17.67 g. In addition, in data set [2], the “Body weight D14” value worked out at 18.32 g, the “Body weight D17” value is 18.66 g and the “Body weight D21” value is listed as 17.95 g.
